Assay results taken from patent US20250313569A1, “Pharmaceutical Compounds And Compositions As Modulators Of MAS-Related G-Protein Receptor X2” (Enanta Pharmaceuticals, Inc., priority 2024, published 2025).

Target: T1, MRGPRX2 LAD2 (Homo sapiens, UniProt Q96LB1)
T1 construct: host or cells: LAD2 human mast cells
T1 sequence (Q96LB1 1-330): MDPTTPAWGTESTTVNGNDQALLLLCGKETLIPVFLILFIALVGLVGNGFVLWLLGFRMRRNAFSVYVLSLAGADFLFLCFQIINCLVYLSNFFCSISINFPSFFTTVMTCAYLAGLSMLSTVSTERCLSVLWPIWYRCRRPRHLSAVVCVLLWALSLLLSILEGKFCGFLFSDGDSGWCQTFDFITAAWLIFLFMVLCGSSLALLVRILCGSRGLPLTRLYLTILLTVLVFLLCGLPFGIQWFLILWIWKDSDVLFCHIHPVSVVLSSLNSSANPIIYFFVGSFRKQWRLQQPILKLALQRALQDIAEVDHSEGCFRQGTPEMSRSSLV
Test: LAD2 β-hexosaminidase release assay (degranulation), Cortistatin-14 at EC75
Assay type: cell-based
Details: LAD2 cells; 1 hour compound incubation, Cortistatin-14 at EC75 for 30 minutes; percent degranulation (β-hexosaminidase)
Description: LAD2 cells obtained from the NIH were cultured in StemPro34 (Gibco) serum-free media supplemented with GlutaMax, penicillin and streptomycin, and 100 ng/mL SCF (Invitrogen). Cells were maintained in a 37° C., 5% CO2 humidified incubator at a concentration of 2-5E5 cells/mL, with hemidepletion once a week.
One day prior to the assay, cells were starved of SCF at a concentration of 2.3E5 cells/mL. On the day of the assay cells were washed twice in Tyrode's Buffer containing 0.04% BSA (assay buffer) and plated in a 96 well-v-bottom assay plate at 20,000 cells per well in 80 μL of assay buffer. Compounds were solubilized at 10 mM DMSO and added as a 10-fold overconcentrated 8-point curve in assay buffer in a volume of 10 μL using the JANUS liquid handler. Assay plates were incubated for 1 hour at 37° C. Cortistatin-14 was diluted in assay buffer to […] its predetermined EC75 and added to the assay plates in a volume of 10 μL. Assay plates were incubated at 37° C. for 30 minutes. After incubation, cells were pelleted and 50 μL of supernatant from each well was transferred to a 96 well flat bottom plate containing 100 μL of substrate solution (3.5 mg/mL p-Nitrophenyl-N-acetyl-β-D-glucosaminide (Sigma Aldrich) in 40 mM Citrate Buffer (Thermo Fisher)). The remaining cell pellets were lysed with 150 μL of 0.1% Triton-X-100 and mixed thoroughly. 50 μL of lysate was transferred to a 96-well flat bottom plate containing 100 μL of substrate solution. Plates with supernatants and lysates were incubated at 37° C. for 90 minutes prior to addition of 50 μL of 400 mM Glycine buffer (pH 10.7). The plates were read on a Perkin Elmer Envision plate reader at an Abs of 405 nanometers. Percent degranulation was calculated and Xlfit was used to calculate an EC50 value for each compound using a 4-parameter logistic curve fitting model. EC50 ranges are reported as follows: A<100 nM; B 0.1-1 μM; C>1 μM.

SMILES | EC50 [nM]
CC(=O)N1C[C@@H](NC(=O)N2CCc3cn(C)nc3C2)C[C@@H](Nc2cc(C(F)(F)F)nc3ccc(Cl)cc23)C1 [Example 129] | < 100
CC(=O)N1C[C@@H](NC(=O)c2cn(CS(C)(=O)=O)nc2Cl)C[C@@H](Nc2cc(C(F)(F)F)nc3ccc(Cl)cc23)C1 [Example 101] | < 100
CC(=O)N1C[C@@H](NC(=O)c2c[nH]c3ncccc23)C[C@@H](Nc2cc(C(F)(F)F)nc3ccc(Cl)cc23)C1 [Example 94] | < 100
COCC(F)(F)C(=O)N1C[C@@H](NC(=O)c2cn(CC(C)(C)O)nc2Cl)C[C@@H](Nc2cc(C(F)(F)F)nc3ccc(Cl)cc23)C1 [Example 79] | < 100
O=C(N[C@H]1C[C@@H](Nc2cc(C(F)(F)F)nc3ccc(Cl)cc23)CN(C(=O)C(F)F)C1)c1cn(C2CCC(F)(F)CC2)nc1Cl [Example 121] | < 100
CC(=O)N1C[C@@H](NC(=O)c2cn(CC(C)(C)O)c3ncccc23)C[C@@H](Nc2cc(C(F)(F)F)nc3ccc(Cl)cc23)C1 [Example 98] | < 100
O=C(N[C@H]1C[C@@H](Nc2cc(C(F)(F)F)nc3ccc(Cl)cc23)CN(C(=O)C(F)F)C1)c1cn(C[C@@H](O)C(F)(F)F)nc1Cl [Example 116] | < 100
O=C(N[C@H]1C[C@@H](Nc2cc(C(F)(F)F)nc3ccc(Cl)cc23)CN(C2COC2)C1)c1cn(CC(F)(F)F)nc1C1CC1 [Example 91] | 100 to 1000
CC(C)(O)Cn1cc(C(=O)N[C@H]2C[C@@H](Nc3cc(C(F)(F)F)nc4ccc(Cl)cc34)CN(C(=O)c3ccccc3F)C2)c(Cl)n1 [Example 85] | < 100
CC(=O)N1C[C@@H](NC(=O)c2cn(CC(F)(F)F)nc2C2CC2)C[C@@H](Nc2cc(C(F)(F)F)nc3ccc(OC(F)(F)F)cc23)C1 [Example 132] | < 100
CC(C)(O)Cn1cc(C(=O)N[C@H]2C[C@@H](Nc3cc(C(F)(F)F)nc4ccc(Cl)cc34)CN(C(=O)[C@H]3CC3(F)F)C2)c(Cl)n1 [Example 78] | < 100
CC(=O)N1C[C@@H](NC(=O)c2cn(CC(F)(F)F)nc2C2CC2)C[C@@H](Nc2cc(C(F)(F)F)nc3cc(F)c(Cl)cc23)C1 [Example 133] | < 100
CC(=O)N1C[C@@H](NC(=O)c2ccc3[nH]ccc3c2)C[C@@H](Nc2cc(C(F)(F)F)nc3ccc(Cl)cc23)C1 [Example 111] | < 100
CC(=O)N1C[C@@H](NC(=O)c2cn(CC(F)(F)F)nc2C2CCC2)C[C@@H](Nc2cc(C(F)(F)F)nc3ccc(Cl)cc23)C1 [Example 100] | < 100
CC(C)(O)Cn1cc(C(=O)N[C@H]2C[C@@H](Nc3cc(C(F)(F)F)nc4ccc(Cl)cc34)CN(C(=O)C(F)F)C2)c(Cl)n1 [Example 118] | < 100
CC(C)(O)Cn1cc(C(=O)N[C@H]2C[C@@H](Nc3cc(C(F)(F)F)nc4ccc(Cl)cc34)CN(C(=O)COC(F)(F)F)C2)c(Cl)n1 [Example 80] | < 100
O=C(N[C@H]1C[C@@H](Nc2cc(C(F)(F)F)nc3ccc(Cl)cc23)CN(C(=O)C(F)F)C1)N1CCCC2(CC2)C1 [Example 128] | < 100
O=C(N[C@H]1C[C@@H](Nc2cc(C(F)(F)F)nc3ccc(Cl)cc23)CN(C(=O)[C@@H]2CC2(F)F)C1)c1cn(CC(F)(F)F)nc1C1CC1 [Example 75] | < 100
C[C@@H](O)Cn1cc(C(=O)N[C@H]2C[C@@H](Nc3cc(C(F)(F)F)nc4ccc(Cl)cc34)CN(C(=O)C(F)F)C2)c(Cl)n1 [Example 123] | < 100
CC(=O)N1C[C@@H](NC(=O)c2cn(CC(F)(F)F)nc2C2CC2)C[C@@H](Nc2cc(C(F)(F)F)nc3c(F)cc(Cl)cc23)C1 [Example 139] | < 100
CC(=O)N1C[C@@H](NC(=O)c2cn(CC(F)(F)F)nc2C2CC2)C[C@@H](Nc2c(F)c(C(F)(F)F)nc3ccc(Cl)cc23)C1 [Example 136] | < 100
CC(=O)N1C[C@@H](NC(=O)c2cn(CC(F)(F)F)nc2C(F)(F)F)C[C@@H](Nc2cc(C(F)(F)F)nc3ccc(Cl)cc23)C1 [Example 96] | < 100
CC(C)(O)Cn1cc(C(=O)N[C@H]2C[C@@H](Nc3cc(C(F)(F)F)nc4ccc(Cl)cc34)CN(C(=O)C3(C(F)(F)F)CC3)C2)c(Cl)n1 [Example 82] | < 100

SMILES | EC50 [nM]
CC(=O)N1C[C@@H](NC(=O)c2cn(C3CCS(=O)(=O)CC3)nc2C(F)(F)F)C[C@@H](Nc2cc(C(F)(F)F)nc3ccc(Cl)cc23)C1 [Example 106] | < 100
Cn1nnc(N2C[C@@H](NC(=O)c3cn(CC(F)(F)F)nc3C3CC3)C[C@@H](Nc3cc(C(F)(F)F)nc4ccc(Cl)cc34)C2)n1 [Example 93] | < 100
CC(C)(O)Cn1cc(C(=O)N[C@H]2C[C@@H](Nc3cc(C(F)(F)F)nc4ccc(Cl)cc34)CN(C(=O)C(F)(F)c3ccc(C#N)cc3)C2)c(Cl)n1 [Example 88] | < 100
CC(=O)N1C[C@@H](NC(=O)c2cn(CC(F)(F)F)cc2C(F)(F)F)C[C@@H](Nc2cc(C(F)(F)F)nc3ccc(Cl)cc23)C1 [Example 113] | < 100
CC(=O)N1C[C@@H](NC(=O)c2cn(CC(F)F)nc2C2CC2)C[C@@H](Nc2cc(C(F)(F)F)nc3ccc(Cl)cc23)C1 [Example 110] | < 100
CC(C)(O)Cn1cc(C(=O)N[C@H]2C[C@@H](Nc3cc(C(F)(F)F)nc4ccc(Cl)cc34)CN(C(=O)[C@H](NC(=O)C(F)(F)F)c3ccccc3)C2)c(Cl)n1 [Example 86] | < 100
CC(=O)N1C[C@@H](NC(=O)c2cn(CC(C)(C)O)nc2C(F)F)C[C@@H](Nc2cc(C(F)(F)F)nc3ccc(Cl)cc23)C1 [Example 103] | < 100
CS(=O)(=O)Nc1cccc(C(=O)N[C@H]2C[C@@H](Nc3cc(C(F)(F)F)nc4ccc(Cl)cc34)CN(C(=O)C(F)F)C2)c1 [Example 72] | < 100
CC(=O)N1C[C@@H](NC(=O)c2cn(CC(F)(F)F)nc2C2CC2)C[C@@H](Nc2c(C)c(C(F)(F)F)nc3ccc(Cl)cc23)C1 [Example 135] | < 100
COCC(F)(F)C(=O)N1C[C@@H](NC(=O)c2cn(CC(F)(F)F)nc2C2CC2)C[C@@H](Nc2cc(C(F)(F)F)nc3ccc(Cl)cc23)C1 [Example 87] | < 100
CC(=O)N1C[C@@H](NC(=O)c2ccc3cc[nH]c3c2)C[C@@H](Nc2cc(C(F)(F)F)nc3ccc(Cl)cc23)C1 [Example 112] | < 100
O=C(N[C@H]1C[C@@H](Nc2cc(C(F)(F)F)nc3ccc(Cl)cc23)CN(c2ccccn2)C1)c1cn(CC(F)(F)F)nc1C1CC1 [Example 92] | < 100
CC(=O)N1C[C@@H](NC(=O)c2cn(C3CC(F)(F)C3)nc2C(F)F)C[C@@H](Nc2cc(C(F)(F)F)nc3ccc(Cl)cc23)C1 [Example 108] | < 100
COCc1nn(CC(F)(F)F)cc1C(=O)N[C@H]1C[C@@H](Nc2cc(C(F)(F)F)nc3ccc(Cl)cc23)CN(C(C)=O)C1 [Example 102] | < 100
O=C(N[C@H]1C[C@@H](Nc2cc(C(F)(F)F)nc3ccc(Cl)cc23)CN(C(=O)C(F)F)C1)c1cn(C[C@H](O)C(F)F)nc1Cl [Example 120] | < 100
CC(=O)N1C[C@@H](NC(=O)c2cn(CC(F)(F)F)nc2C2CC2)C[C@@H](Nc2c(F)c(C(F)(F)F)nc3cc(F)c(Cl)cc23)C1 [Example 130] | < 100
CC(C)(O)Cn1cc(C(=O)N[C@H]2C[C@@H](Nc3c(F)c(C(F)(F)F)nc4ccc(Cl)cc34)CN(C(=O)C(C)(C)F)C2)c(Cl)n1 [Example 83] | < 100
CC(C)(O)Cn1cc(C(=O)N[C@H]2C[C@@H](Nc3cc(C(F)(F)F)nc4ccc(Cl)cc34)CN(C(=O)OCC(F)(F)F)C2)c(Cl)n1 [Example 84] | < 100
CC(=O)N1C[C@@H](NC(=O)c2cn(CC(C)(C)O)nc2C(F)(F)F)C[C@@H](Nc2cc(C(F)(F)F)nc3ccc(Cl)cc23)C1 [Example 95] | < 100
O=C(N[C@H]1C[C@@H](Nc2cc(C(F)(F)F)nc3ccc(Cl)cc23)CN(C(=O)[C@H]2CC2(F)F)C1)c1cn(CC(F)(F)F)nc1C1CC1 [Example 74] | < 100
O=C(N[C@H]1C[C@@H](Nc2cc(C(F)(F)F)nc3ccc(Cl)cc23)CN(C(=O)C(F)(F)F)C1)c1cn(CC(F)(F)F)nc1C1CC1 [Example 89] | < 100
CC(=O)N1C[C@@H](NC(=O)c2cn(CC(F)F)nc2C(F)(F)F)C[C@@H](Nc2cc(C(F)(F)F)nc3ccc(Cl)cc23)C1 [Example 99] | < 100
O=C(N[C@H]1C[C@@H](Nc2cc(C(F)(F)F)nc3ccc(Cl)cc23)CN(C(=O)C(F)F)C1)N1CC[C@H](O)C1 [Example 127] | < 100
